According to US12065434B2, “Metabolites of GLP1R agonists” (Pfizer Inc., priority 2020, dated 2024):

How the values were obtained:
[1] = Metabolite profiling of pooled human plasma after repeat oral dosing of Compound 1 (HPLC/UV/MS); conditions: for Plasma Extracts: Compound 1 120 mg oral BID, Day 28, HPLC/UV/MS; for observed as major or minor metabolite in human plasma: Compound 1 120 mg BID, Day 28
rat hepatocytes = experiment: In vitro metabolism of Compound 2 in rat cryopreserved hepatocytes; type: in vitro ADME; parameters: key to Relative abundance of metabolite of Compound 2, Rat: ND Not detected.; trace: Trace: observed by HPLC/MS measurements only.; + Minor as assessed by HPLC/UV measurements; ++ moderate as assessed by HPLC/UV measurements; +++ major as assessed by HPLC/UV measurements.; * m/z 593 and m/z 505 co-eluted in rabbit hepatocytes.; ** m/z 591 c and m/z 593 were merged in human hepatocytes and Hepatopack.; *** m/z 607 and m/z 751 b were merged in rabbit hepatocytes; conditions: for metabolite of Compound 2 observed in rat hepatocyte incubations: 10 μM Compound 2, 7.5×10^5 cells/mL, 1 and 4 hrs composite; for Relative abundance of metabolite of Compound 2, Rat: rat cryopreserved hepatocytes, HPLC/UV/MS
Protocol: (§1) Male CD-1 mouse hepatocytes (lot YHL), male Wistar-Han rat hepatocytes (Celsius; product number: M000065; lot: SLA), female New Zealand rabbit hepatocytes (lot 1510147), male cryopreserved cynomolgus monkey hepatocytes (Celsius; product number: M00305; lot: DNB) and mixed-gender cryopreserved human hepatocytes (Bioreclamation; product number: S01988; lot: DCM) were obtained for the hepatocyte in-vitro assessments.
(§2) At time 0 hrs 550 μL aliquots were removed from incubations and quenched with 5 volumes of ACN containing 0.1% formic acid. At 1 and 4 hrs, 275 μL aliquots were removed and quenched as above; these were combined in the same tube to prepare a composite sample. For all hepatocyte experiments, samples were processed by centrifugation at 1900×g for 5 minutes, and then the supernatant was transferred to clean glass tubes and evaporated to dryness under a stream of N2 using a Turbovap at 37° C. Sample residues were reconstituted in mobile phase prior to analysis by HPLC/UV/MS^n.
(§3) Samples were analyzed by HPLC/UV/MS^n using a Thermo Orbitrap Elite mass spectrometer in conjunction with a Thermo Open Accela UHPLC system. A 3.0×150 mm, 2.5 μm Acquity CSH C18 HPLC column (Waters) was heated to 45° C. for separation of analytes. The mobile phase was a gradient of A): water containing 0.1% formic acid, and B): acetonitrile. The flow rate was 450 μL/min, and the following gradient program was utilized: […]
(§4) UV absorbance was monitored with a photo-diode array detector from 220-450 nm. The mass spectrometer was operated in positive-ion mode with a HESI ion source at a potential of 3.0 kV, and capillary and source heater temperatures of 380 and 300° C., respectively. Sheath, auxiliary, and sweep gas flows were set to 45, 10, and 2 units, respectively. Full scan mass spectra were acquired over the range 120-1200 m/z at a resolving power of 30,000 (specified at m/z 400). Data-dependent MS^n spectra were acquired in an automated fashion at 15,000 resolving power using CID and HCD fragmentation with normalized collision energy settings of 28 and 65 V, respectively.
(§5) Metabolites were characterized by comparisons of mass spectral fragmentation patterns with that of a Compound 2 standard. All HPLC/UV/MS^n data were processed using Xcalibur v. 2.2, and integrated UV peak areas were subjected to weighted UV binning procedures utilizing an Excel template.

rabbit hepatocytes = experiment: In vitro metabolism of Compound 2 in rabbit cryopreserved hepatocytes; type: in vitro ADME; parameters: key to Relative abundance of metabolite of Compound 2, Rabbit: ND Not detected.; trace: Trace: observed by HPLC/MS measurements only.; + Minor as assessed by HPLC/UV measurements; ++ moderate as assessed by HPLC/UV measurements; +++ major as assessed by HPLC/UV measurements.; * m/z 593 and m/z 505 co-eluted in rabbit hepatocytes.; ** m/z 591 c and m/z 593 were merged in human hepatocytes and Hepatopack.; *** m/z 607 and m/z 751 b were merged in rabbit hepatocytes; conditions: for metabolite of Compound 2 observed in rabbit hepatocyte incubations: 10 μM Compound 2, 7.5×10^5 cells/mL, 1 and 4 hrs composite
Protocol: as §1, §2, §3, §4, §5

mouse hepatocytes = experiment: In vitro metabolism of Compound 2 in mouse cryopreserved hepatocytes; type: in vitro ADME; parameters: key to Relative abundance of metabolite of Compound 2, Mouse: ND Not detected.; trace: Trace: observed by HPLC/MS measurements only.; + Minor as assessed by HPLC/UV measurements; ++ moderate as assessed by HPLC/UV measurements; +++ major as assessed by HPLC/UV measurements.; * m/z 593 and m/z 505 co-eluted in rabbit hepatocytes.; ** m/z 591 c and m/z 593 were merged in human hepatocytes and Hepatopack.; *** m/z 607 and m/z 751 b were merged in rabbit hepatocytes; conditions: for metabolite of Compound 2 observed in mouse hepatocyte incubations: 10 μM Compound 2, 7.5×10^5 cells/mL, 1 and 4 hrs composite
Protocol: as §1, §2, §3, §4, §5

monkey hepatocytes = experiment: In vitro metabolism of Compound 2 in monkey cryopreserved hepatocytes; type: in vitro ADME, cynomolgus monkey; parameters: key to Relative abundance of metabolite of Compound 2, Monkey: ND Not detected.; trace: Trace: observed by HPLC/MS measurements only.; + Minor as assessed by HPLC/UV measurements; ++ moderate as assessed by HPLC/UV measurements; +++ major as assessed by HPLC/UV measurements.; * m/z 593 and m/z 505 co-eluted in rabbit hepatocytes.; ** m/z 591 c and m/z 593 were merged in human hepatocytes and Hepatopack.; *** m/z 607 and m/z 751 b were merged in rabbit hepatocytes; conditions: for metabolite of Compound 2 observed in monkey hepatocyte incubations: 10 μM Compound 2, 7.5×10^5 cells/mL, 1 and 4 hrs composite
Protocol: as §1, §2, §3, §4, §5

human hepatocytes = experiment: In vitro metabolism of Compound 2 in human cryopreserved hepatocytes; type: in vitro ADME; parameters: key to Relative abundance of metabolite of Compound 2, Human: ND Not detected.; trace: Trace: observed by HPLC/MS measurements only.; + Minor as assessed by HPLC/UV measurements; ++ moderate as assessed by HPLC/UV measurements; +++ major as assessed by HPLC/UV measurements.; * m/z 593 and m/z 505 co-eluted in rabbit hepatocytes.; ** m/z 591 c and m/z 593 were merged in human hepatocytes and Hepatopack.; *** m/z 607 and m/z 751 b were merged in rabbit hepatocytes; conditions: for metabolite of Compound 2 observed in human hepatocyte incubations: 10 μM Compound 2, 7.5×10^5 cells/mL, 1 and 4 hrs composite
Protocol: as §1, §2, §3, §4, §5

| SMILES | Plasma Extracts [1] | observed as major or minor metabolite in human plasma [1] | metabolite of Compound 2 observed in rat hepatocyte incubations (rat hepatocytes) | metabolite of Compound 2 observed in rabbit hepatocyte incubations (rabbit hepatocytes) | metabolite of Compound 2 observed in mouse hepatocyte incubations (mouse hepatocytes) | metabolite of Compound 2 observed in monkey hepatocyte incubations (monkey hepatocytes) | metabolite of Compound 2 observed in human hepatocyte incubations (human hepatocytes) | other results |
| --- | --- | --- | --- | --- | --- | --- | --- | --- |
| N#Cc1ccc(COc2cccc(C3(O)CCN(Cc4nc5ccc(C(=O)O)cc5n4C[C@@H]4CCO4)CC3)n2)c(F)c1 [Compound M4, (S)-2-((4-(6-((4-cyano-2-fluorobenzyl)oxy)pyridin-2-yl)-4-hydroxypiperidin-1-yl)methyl)-1-(oxetan-2-ylmethyl)-1H-benzo[d]imidazole-6-carboxylic acid] | + |  |  |  |  |  |  |  |
| N#Cc1ccc(COc2cccc(C3CCNCC3)n2)c(F)c1 [Compound M3, 3-fluoro-4-(((6-(piperidin-4-yl)pyridin-2-yl)oxy)methyl)benzonitrile] | + | minor metabolite |  |  |  |  |  |  |
| C[C@]1(c2ccc(Cl)cn2)Oc2cccc(C3CCN(Cc4nc5ccc(C(=O)O)cc5[nH]4)CC3)c2O1 [Metabolite 505, (S)-2-((4-(2-(5-chloropyridin-2-yl)-2-methylbenzo[d][1,3]dioxol-4-yl)piperidin-1-yl)methyl)-1H-benzo[d]imidazole-6-carboxylic acid] |  |  | observed | observed | observed |  |  | Relative abundance of metabolite of Compound 2, Rat (rat hepatocytes): trace; Relative abundance of metabolite of Compound 2, Rabbit (rabbit hepatocytes; rabbit cryopreserved hepatocytes, HPLC/UV/MS): *; Relative abundance of metabolite of Compound 2, Mouse (mouse hepatocytes; mouse cryopreserved hepatocytes, HPLC/UV/MS): trace |
| C[C@]1(c2ccc(Cl)cn2)Oc2cccc(C3=CCN(Cc4nc5ccc(C(=O)O)cc5n4C[C@@H]4CCO4)CC3)c2O1 [Metabolite 573a] |  |  | low-level metabolite | low-level metabolite | low-level metabolite | low-level metabolite | low-level metabolite |  |
| O=C(O)c1ccc2nc(CN3CCC(c4cccc(O)c4O)CC3)n(C[C@@H]3CCO3)c2c1 [Metabolite 438, (S)-2-((4-(2,3-dihydroxyphenyl)piperidin-1-yl)methyl)-1-(oxetan-2-ylmethyl)-1H-benzo[d]imidazole-6-carboxylic acid] |  |  | trace metabolite |  |  | trace metabolite | trace metabolite | Relative abundance of metabolite of Compound 2, Monkey (monkey hepatocytes; monkey cryopreserved hepatocytes, HPLC/UV/MS): trace; Relative abundance of metabolite of Compound 2, Rat (rat hepatocytes): trace; Relative abundance of metabolite of Compound 2, Human (human hepatocytes; human cryopreserved hepatocytes, HPLC/UV/MS): trace |
| N#Cc1ccc(COc2cccc(C3CCN(Cc4nc5ccc(C(=O)O)cc5n4CC(O)CCO)CC3)n2)c(F)c1 (stereo not drawn) [Compound 574b, 2-((4-(6-((4-cyano-2-fluorobenzyl)oxy)pyridin-2-yl)piperidin-1-yl)methyl)-1-(2,4-dihydroxybutyl)-1H-benzo[d]imidazole-6-carboxylic acid] | + | minor metabolite |  |  |  |  |  |  |
| N#Cc1ccc(COc2cccc(C(CCO)CCNCc3nc4ccc(C(=O)O)cc4n3C[C@@H]3CCO3)n2)c(F)c1 (stereo partly drawn) [Compound 574a, 2-(((3-(6-((4-cyano-2-fluorobenzyl)oxy)pyridin-2-yl)-5-hydroxypentyl)amino)methyl)-1-(((S)-oxetan-2-yl)methyl)-1H-benzo[d]imidazole-6-carboxylic acid] | + | minor metabolite |  |  |  |  |  |  |
| N#Cc1ccc(COc2cccc(C3CCN(Cc4nc5ccc(C(=O)O)cc5n4C[C@@H]4CCO4)CC3)n2)c(F)c1 [Compound 1, 2-[(4-{6-[(4-Cyano-2-fluorobenzyl)oxy]pyridin-2-yl}piperidin-1-yl)methyl]-1-[(2S)-oxetan-2-ylmethyl]-1H-benzimidazole-6-carboxylic acid] | +++ |  |  |  |  |  |  |  |
| C[C@]1(c2ccc(Cl)cn2)Oc2cccc(C3CC[N+]([O-])(Cc4nc5ccc(C(=O)O)cc5n4C[C@@H]4CCO4)CC3)c2O1 (stereo partly drawn) [Metabolite 591d] |  |  | observed in all hepatocyte incubations | observed in all hepatocyte incubations | observed in all hepatocyte incubations | observed in all hepatocyte incubations | observed in all hepatocyte incubations |  |
